In ChEMBL document CHEMBL1201862, “PubChem BioAssay data set” (2004):
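All cell lines were grown in 96-well plates and treated with compound for 48 hours. Abbreviation: GI50, concentration required for 50% inhibition of growth.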 Activity calls are given as the source filed them. Rule as the data show it: active = GI50 up to about 1.1 µM and inactive = higher.

Columns and labels:
Experiment in all cases: inhibition of tumour cell growth, NCI panel, 48 h
[1] = tested on: 786-0
[2] = tested on: A498
[3] = tested on: A549
[4] = tested on: CAKI-1
[5] = tested on: DU-145
[6] = tested on: HOP-62
[7] = tested on: Hs-578T
[8] = tested on: IGROV-1
[9] = tested on: K562
[10] = tested on: M14
[11] = tested on: NCI-H460
[12] = tested on: NCI-H522
[13] = tested on: OVCAR-3
[14] = tested on: RPMI-8226
[15] = tested on: SNB-19
[16] = tested on: SNB-75
[17] = tested on: SW-620
[18] = tested on: U-251
[19] = tested on: UACC-257
[20] = tested on: UACC-62

| SMILES | GI50 [1] | GI50 [2] | GI50 [3] | GI50 [4] | GI50 [5] | GI50 [6] | GI50 [7] | GI50 [8] | GI50 [9] | GI50 [10] | GI50 [11] | GI50 [12] | GI50 [13] | GI50 [14] | GI50 [15] | GI50 [16] | GI50 [17] | GI50 [18] | GI50 [19] | GI50 [20] |
| --- | --- | --- | --- | --- | --- | --- | --- | --- | --- | --- | --- | --- | --- | --- | --- | --- | --- | --- | --- | --- |
| C/C=C/[C@@H]1O[C@H](CC#C[Si](C)(C)C)[C@@]2(C=O)C(C)=CC[C@H](C(C)C)[C@@H]12 | 13.7 µM (inactive) | 29.6 µM (inactive) | 23.1 µM (inactive) | 1.94 µM (inactive) | 21.3 µM (inactive) | 25.4 µM (inactive) | 33.3 µM (inactive) | 2.82 µM (inactive) | 14.7 µM (inactive) | 18.5 µM (inactive) | 17.1 µM (inactive) | 2.09 µM (inactive) | 18.6 µM (inactive) | 5.7 µM (inactive) | 23.8 µM (inactive) | 21.6 µM (inactive) | 23.2 µM (inactive) | 17.3 µM (inactive) | 12.9 µM (inactive) | 15.8 µM (inactive) |
| O=C1CSC(c2ccccc2O)N1c1ccc(-n2c(-c3ccccc3)nc3ccccc3c2=O)cc1 (stereo not given) | 20.1 µM (inactive) | 29.7 µM (inactive) | 38.4 µM (inactive) | 29.2 µM (inactive) | 29.2 µM (inactive) | 20.6 µM (inactive) | 23.4 µM (inactive) | 25.5 µM (inactive) | 15.2 µM (inactive) | 33.7 µM (inactive) | 14.8 µM (inactive) | 19.9 µM (inactive) | 14.6 µM (inactive) | 21.1 µM (inactive) | 27.3 µM (inactive) | 54.1 µM (inactive) | 29.7 µM (inactive) | 5.7 µM (inactive) | 26.7 µM (inactive) | 21.5 µM (inactive) |
| C=C1C(=O)O[C@@H]2C(=O)[C@@H](C)[C@@H]3C=CC(=O)[C@@]3(C)[C@@H](OC(=O)/C(C)=C\C)[C@H]12 [MULTISTATIN] | 0.31 µM (active) | 1.69 µM (inactive) | 10.6 µM (inactive) | 0.264 µM (active) | 1.57 µM (inactive) | 11.9 µM (inactive) | 6.44 µM (inactive) | 1.48 µM (inactive) | 0.293 µM (active) | 1.56 µM (inactive) | 2.21 µM (inactive) | 0.0883 µM (active) | 0.653 µM (active) | 0.327 µM (active) | 12.9 µM (inactive) | 5.53 µM (inactive) | 0.361 µM (active) | 2.43 µM (inactive) | 1.47 µM (inactive) | 1.25 µM (inactive) |
| CCN(CC)CCCNc1ccc2nc(C)n3c4ccc(O)cc4c(=O)c1c23 | 1.81 µM (inactive) | 11.9 µM (inactive) | 2.11 µM (inactive) | 4.78 µM (inactive) | 5.46 µM (inactive) | 3.21 µM (inactive) | 7.08 µM (inactive) | 1.64 µM (inactive) | 2.97 µM (inactive) | 8.61 µM (inactive) | 0.838 µM (active) | 0.485 µM (active) | 8.09 µM (inactive) | 1.9 µM (inactive) | 6.7 µM (inactive) | 0.881 µM (active) | 0.957 µM (active) | 5.36 µM (inactive) | 15.5 µM (inactive) | 10 µM (inactive) |
| CCN(CC)Cc1cc(/N=N\c2c(O)ccc3c(/N=N\c4ccc(O)c(CN(CC)CC)c4)c(O)ccc23)ccc1O | 1.87 µM (inactive) | 13.3 µM (inactive) | 2.42 µM (inactive) | 2.1 µM (inactive) | 2.65 µM (inactive) | 2.79 µM (inactive) | 3.73 µM (inactive) | 2.99 µM (inactive) | 2.21 µM (inactive) | 5.4 µM (inactive) | 1.91 µM (inactive) | 2.31 µM (inactive) | 3.73 µM (inactive) | 1.68 µM (inactive) | 3.86 µM (inactive) | 6.28 µM (inactive) | 3.29 µM (inactive) | 3.48 µM (inactive) | 5.75 µM (inactive) | 4.41 µM (inactive) |
| O=C(CN1CCN(C(=O)OCc2ccccc2)CCN(CC(=O)N2CCCCC2)CCN(C(=O)OCc2ccccc2)CC1)N1CCCCC1 | 13.8 µM (inactive) | 16.7 µM (inactive) | 20.8 µM (inactive) | 5.04 µM (inactive) | 21.4 µM (inactive) | 19.5 µM (inactive) | 14.3 µM (inactive) | 10.3 µM (inactive) | 5.4 µM (inactive) | 10.1 µM (inactive) | 12.4 µM (inactive) | 5.52 µM (inactive) | 10.7 µM (inactive) | 13.4 µM (inactive) | 19.7 µM (inactive) | 4.22 µM (inactive) | 19.6 µM (inactive) | 16.5 µM (inactive) | 3.49 µM (inactive) | 18.1 µM (inactive) |
